In PMC9223764, “In Vitro Selection and Characterization of HIV-1 Variants with Increased Resistance to LP-40, Enfuvirtide-Based Lipopeptide Inhibitor” (International Journal of Molecular Sciences, 2022):
Where a SMILES comes first, the peptide text is derived from it. The star is where a group is joined. Palmitoyl = CCCCCCCCCCCCCCCC(=O)*

What was measured:
Type in all cases: cell-based
[1] = tested on: LP40-V12 pseudovirus (HIV-1 NL4-3 Env mutant); settings: for IC50: LP40-V12 (Env selected at LP-40 200 µM), TZM-bl cells, 48 h, luciferase, mean ± SD, triplicate, repeated three times
Procedure: (§1) To simulate the sequence changes of viral resistance genes under different drug concentration pressures, we constructed the Env genes under different drug concentration pressures in the PCDNA3.1 vector and obtained a series of mutations. […] T20-V 6~12, T20-V 13~14, and T 20-V 15~18 were constructed at concentrations of 200 µM (P21), 400 µM (P24), and 2000 µM (P32), respectively. Similarly, the LP-40 pressure concentrations were 0.3 µM, 8 µM, 20 µM, and 200 µM, respectively, and the constructs were numbered LP40-V 1~5, LP40-V 6~8, LP40-V 9~11, and LP40-V 12~15. Resistance mutations will cause varying levels of damage to the function of the pseudoviral envelope proteins. Here, we explored how serial mutations affect the function of viral envelope proteins. Based on this problem, we performed a single round of quantitative P24-infection experiments, packaging the pseudovirus with a previously constructed series of mutant plasmids. We compared the invasion ability of the HIV-1 wild-type and mutant pseudoviruses toward target cells under the same P24 content (using the invasion capacity of each subtype as 100%).
(§2) The infectivity of HIV Env mutants and the inhibitory activities of membrane fusion inhibitors on mutants in TZM-bl cells were measured using a single-cycle infection assay as described previously. Briefly, the HIV pseudovirus was packed using an Env-coding plasmid, and pSG3ΔEnv was co-transfected into HEK293T cells. pSG3ΔEnv encodes an Env-defective, luciferase-expressing HIV-1 genome. After the pseudoviruses were harvested and filtrated, the amount of pseudoviruses was fixed via P24 antigen, and their infectivity was determined in TZM-bl cells. In order to measure the inhibitory activities of the inhibitors, inhibitors diluted serially 3-fold were mixed with an equal volume of pseudoviruses, and then 100 µL 1 × 10^5/mL TZM-bl cells were added to the mixture and incubated at 37 °C with 5% CO2 for 48 h. After that, TZM-bl cells were lysed using reporter lysis buffer, and IC50 values were calculated according to luciferase activity measured by luciferase assay reagents and a luminescence counter (Promega, Madison, WI, USA).

[2] = tested on: LP40-V9 pseudovirus (HIV-1 NL4-3 Env mutant); settings: for IC50: LP40-V9 (Env selected at LP-40 20 µM), TZM-bl cells, 48 h, luciferase, mean ± SD, triplicate, repeated three times
Procedure: as §1, §2

[3] = tested on: T20-V16 pseudovirus (HIV-1 NL4-3 Env mutant); settings: for IC50: T20-V16 (Env selected at T20 2000 µM, P32), TZM-bl cells, 48 h, luciferase, mean ± SD, triplicate, repeated three times
Procedure: as §1, §2

[4] = tested on: T20-V17 pseudovirus (HIV-1 NL4-3 Env mutant); settings: for IC50: T20-V17 (Env selected at T20 2000 µM, P32), TZM-bl cells, 48 h, luciferase, mean ± SD, triplicate, repeated three times
Procedure: as §1, §2

[5] = tested on: T20-V18 pseudovirus (HIV-1 NL4-3 Env mutant); settings: for IC50: T20-V18 (Env selected at T20 2000 µM, P32), TZM-bl cells, 48 h, luciferase, mean ± SD, triplicate, repeated three times
Procedure: as §1, §2

[6] = tested on: T20-V2 pseudovirus (HIV-1 NL4-3 Env mutant); settings: for IC50: T20-V2 (Env selected at T20 12 µM, P9), TZM-bl cells, 48 h, luciferase, mean ± SD, triplicate, repeated three times
Procedure: as §1, §2

[7] = tested on: T20-V7 pseudovirus (HIV-1 NL4-3 Env mutant); settings: for IC50: T20-V7 (Env selected at T20 200 µM, P21), TZM-bl cells, 48 h, luciferase, mean ± SD, triplicate, repeated three times
Procedure: as §1, §2

[8] = tested on: HIV-1 NL4-3 gp41 L33S/I37T pseudovirus; settings: Table 3; for IC50: L33S/I37T, TZM-bl cells, 48 h, luciferase, means, triplicate, repeated three times
Procedure: (§3) We selected LP-40-induced drug resistance typical point mutations and combination mutation pseudoviruses to evaluate the current representative membrane fusion inhibitors.
as §2

[9] = tested on: HIV-1 NL4-3 gp41 L33S/V38A/N42T pseudovirus; settings: Table 3; for IC50: L33S/V38A/N42T, TZM-bl cells, 48 h, luciferase, means, triplicate, repeated three times
Procedure: as §3, §2

[10] = tested on: HIV-1 NL4-3 gp41 NDQEEDYN pseudovirus; settings: Table 3; for IC50: NDQEEDYN (E109N, N113D, E119Q, D121E, N125E, S129D, H132Y, S133N), TZM-bl cells, 48 h, luciferase, means, triplicate, repeated three times
Procedure: as §3, §2

[11] = tested on: HIV-1 NL4-3 gp41 NDQEEDYN/L33S/I37T pseudovirus; settings: Table 3; for IC50: NDQEEDYN/L33S/I37T, TZM-bl cells, 48 h, luciferase, means, triplicate, repeated three times
Procedure: as §3, §2

[12] = tested on: HIV-1 NL4-3 gp41 NDQEEDYN/L33S/V38A/N42T pseudovirus; settings: Table 3; for IC50: NDQEEDYN/L33S/V38A/N42T, TZM-bl cells, 48 h, luciferase, means, triplicate, repeated three times
Procedure: as §3, §2

[13] = tested on: HIV-1 NL4-3 gp41 V38A/N42T pseudovirus; settings: Table 3; for IC50: V38A/N42T, TZM-bl cells, 48 h, luciferase, means, triplicate, repeated three times
Procedure: as §3, §2

Row | Compound | IC50 [1] | IC50 [2] | IC50 [3] | IC50 [4] | IC50 [5] | IC50 [6] | IC50 [7] | IC50 [8] | IC50 [9] | IC50 [10] | IC50 [11] | IC50 [12] | IC50 [13] | also measured
1 | CCCCCCCCCCCCCCCC(=O)NCCCC[C@H](NC(=O)[C@H](CC(=O)O)NC(=O)[C@H](CC(C)C)NC(=O)[C@H](CCC(=O)O)NC(=O)[C@H](CC(C)C)NC(=O)[C@H](CC(C)C)NC(=O)[C@H](CCC(=O)O)NC(=O)[C@H](CCC(N)=O)NC(=O)[C@H](CCC(=O)O)NC(=O)[C@H](CC(N)=O)NC(=O)[C@H](CCCCN)NC(=O)[C@H](CCC(=O)O)NC(=O)[C@H](CCC(N)=O)NC(=O)[C@H](CCC(N)=O)NC(=O)[C@H](CC(N)=O)NC(=O)[C@H](CCC(N)=O)NC(=O)[C@H](CO)NC(=O)[C@H](CCC(=O)O)NC(=O)[C@H](CCC(=O)O)NC(=O)[C@@H](NC(=O)[C@H](CC(C)C)NC(=O)[C@H](CO)NC(=O)[C@H](Cc1c[nH]cn1)NC(=O)[C@@H](NC(=O)[C@H](CC(C)C)NC(=O)[C@H](CO)NC(=O)[C@@H](NC(=O)[C@H](Cc1ccc(O)cc1)NC(C)=O)[C@@H](C)O)[C@@H](C)CC)[C@@H](C)CC)C(N)=O [LP-40] (Ac-YTSLIHSLIEESQNQQEKNEQELLELDK(Palmitoyl)-NH2) | > 6.25 µM | 2.89 ± 0.431 µM | > 6.25 µM | 5.17 ± 1.02 µM | > 6.25 µM | 0.0592 ± 0.0159 µM | 2.73 ± 0.212 µM | 2.98 µM | 4.99 µM | 0.1 µM | 3.28 µM | > 6.25 µM | 4.07 µM | Fold change in IC50 ([1]; LP40-V12 relative to WT NL4-3, Table 1): >227.43 fold; Fold change in IC50 ([2]; LP40-V9 relative to WT NL4-3, Table 1): 97.22 fold; Fold change in IC50 ([3]; T20-V16 relative to WT NL4-3, Table 1): >227.43 fold; Fold change in IC50 ([4]; T20-V17 relative to WT NL4-3, Table 1): 174.12 fold; Fold change in IC50 ([5]; T20-V18 relative to WT NL4-3, Table 1): >227.43 fold; Fold change in IC50 ([6]; T20-V2 relative to WT NL4-3, Table 1): 2.00 fold; Fold change in IC50 ([7]; T20-V7 relative to WT NL4-3, Table 1): 91.82 fold; Fold change in IC50 ([8]; L33S/I37T relative to WT NL4-3): 109.04 fold; Fold change in IC50 ([9]; L33S/V38A/N42T relative to WT NL4-3): 182.67 fold; Fold change in IC50 ([10]; NDQEEDYN relative to WT NL4-3): 3.67 fold; Fold change in IC50 ([11]; NDQEEDYN/L33S/I37T relative to WT NL4-3): 120.00 fold; Fold change in IC50 ([12]; NDQEEDYN/L33S/V38A/N42T relative to WT NL4-3): >228.77 fold; Fold change in IC50 ([13]; V38A/N42T relative to WT NL4-3): 149.15 fold
2 | Enfuvirtide | 5.87 ± 0.978 µM | 1.27 ± 0.315 µM | 1.74 ± 0.229 µM | 2.89 ± 0.882 µM | 6.15 ± 0.475 µM | 0.147 ± 0.0394 µM | 2.81 ± 0.458 µM | 5.85 µM | 4.92 µM | 0.0625 µM | 3.79 µM | 4.78 µM | 3.35 µM | 
